Earlier results in patent US11173217B2, “Methods and compositions for near infrared fluorescent nanodots with aggregation-induced emission characteristics” (priority 2016, dated 2021).

Conditions: in DMSO; cited from earlier work

In the case of `CC1(C)C(/C=C/C=C/C=C/C=C2\N(CCCCS(=O)(=O)[O-])c3ccc4ccccc4c3C2(C)C)=[N+](CCCCS(=O)(=O)[O-])c2ccc3ccccc3c21.[Na+]` [IR-125], the “quantum yield of reference” value is listed as 13%.
